Data taken from publication PMC11173687, “Chemical Profile and Healthy Properties of Sicilian Diplotaxis harra subsp. crassifolia (Raf.) Maire” (Molecules, 2024).

Experiments:
[1] = DPPH radical scavenging test; conditions: 30 min, room temperature
Method: (§1) The β-carotene bleaching test was performed to investigate the ability of the extract to protect from lipid peroxidation. All test protocols were previously reported. Briefly, in the DPPH test, a solution of DPPH was mixed with extract at different concentrations (10-1000 μg/mL). After that, the mixture was incubated at room temperature for 30 min. The absorbance was read at 517 nm. In the ABTS test, a solution of ABTS radical cation was prepared and, after 12 h, was diluted with ethanol to reach an absorbance of 0.70 at 734 nm. The stabilized ABTS^+ solution was added to extracts at different concentrations (1-400 μg/mL), and the mixture was left to react at room temperature for 6 min. After that, the absorbance was read at 734 nm. Ascorbic acid was employed as a positive control in both the ABTS and DPPH assays. In the FRAP test, a mixture of tripyridyltriazine (TPTZ) solution, FeCl3, and acetate buffer was added to the sample at a concentration of 2.5 mg/mL. After 30 min of incubation at room temperature, the absorbance was measured at 595 nm. Butylated hydroxytoluene (BHT) was used as a positive control. The protection from lipid peroxidation was studied by using the β-carotene bleaching test. […] The mixture was left to react for 30 and 60 min at 45 °C, and the absorbance was read at 470 nm. Propyl gallate was used as a positive control.

[2] = ABTS radical scavenging test; conditions: 6 min, room temperature
Method: as §1

[3] = β-carotene bleaching test (protection from lipid peroxidation)
Method: as §1

[4] = Ferric Reducing Ability Power (FRAP) test; conditions: at 2.5 mg/mL
Method: as §1

In the case of `O=C1O[C@H]([C@@H](O)CO)C(O)=C1O` [Ascorbic acid, ascorbic acid], the “DPPH Test IC50” value [1] is reported as 5.0 ± 0.8 µg/mL and the “ABTS Test IC50” value [2] is reported as 1.7 ± 0.06 µg/mL.
With `CCCOC(=O)c1cc(O)c(O)c(O)c1` [Propyl gallate, propyl gallate] the “β-Carotene Bleaching Test IC50” value ([3]; 30 min) was 1.04 ± 0.04 µg/mL and the “β-Carotene Bleaching Test IC50” value ([3]; 60 min) was 0.09 ± 0.00 µg/mL.
For `Cc1cc(C(C)(C)C)c(O)c(C(C)(C)C)c1` [BHT, butylated hydroxytoluene], the “FRAP Test” value [4] was 63.27 ± 4.35 μM Fe(II)/g.
